One may read the EC50 as the concentration needed to bring the measured effect to its halfway point.

Consider 32 compounds from PubChem BioAssay AID602264 (The Scripps Research Institute Molecular Screening Center, 2012).

Structures are written as SMILES. The source made the active and inactive calls. How the calls were made is not given here.

The target of this assay is Mu-type opioid receptor (Homo sapiens) + Delta-type opioid receptor (Homo sapiens) (UniProt P35372+P41143). The assay can be described thus: OPRM1-OPRD1 heterodimer agonist potency – cell-based, luminescence, counter-screen for MC4R biased agonist project, dose response (AID 602264). As to conditions: cell-based OPRM1-OPRD1 heterodimerization.
Chain of Mu-type opioid receptor (Homo sapiens) + Delta-type opioid receptor (Homo sapiens) (P35372 whole entry, looked up): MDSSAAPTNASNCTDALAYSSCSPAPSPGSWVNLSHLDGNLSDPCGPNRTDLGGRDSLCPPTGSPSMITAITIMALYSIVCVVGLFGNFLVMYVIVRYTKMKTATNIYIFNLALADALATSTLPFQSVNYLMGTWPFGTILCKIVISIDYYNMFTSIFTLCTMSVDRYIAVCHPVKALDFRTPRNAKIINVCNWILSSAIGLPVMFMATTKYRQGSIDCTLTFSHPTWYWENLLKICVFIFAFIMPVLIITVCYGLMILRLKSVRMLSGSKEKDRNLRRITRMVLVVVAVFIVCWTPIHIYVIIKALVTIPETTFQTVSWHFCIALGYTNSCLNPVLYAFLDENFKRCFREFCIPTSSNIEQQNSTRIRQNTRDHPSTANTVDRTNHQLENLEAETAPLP
Chain of Mu-type opioid receptor (Homo sapiens) + Delta-type opioid receptor (Homo sapiens) (P41143 whole entry, looked up): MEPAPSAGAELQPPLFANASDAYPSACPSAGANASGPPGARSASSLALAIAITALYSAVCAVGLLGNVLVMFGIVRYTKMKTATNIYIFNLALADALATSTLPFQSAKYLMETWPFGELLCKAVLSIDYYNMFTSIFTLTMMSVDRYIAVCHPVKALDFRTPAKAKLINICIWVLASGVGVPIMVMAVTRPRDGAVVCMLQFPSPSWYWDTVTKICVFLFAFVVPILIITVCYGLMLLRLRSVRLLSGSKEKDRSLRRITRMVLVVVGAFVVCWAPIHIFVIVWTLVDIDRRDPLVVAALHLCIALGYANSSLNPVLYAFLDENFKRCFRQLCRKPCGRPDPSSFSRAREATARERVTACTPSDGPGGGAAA

`Cc1ccc(-c2csc3nc4c5ccccc5c(NCCCN(C)C)nn4c(=O)c23)cc1`: the EC50 is > 64.6 µM (inactive). Then `COc1ccc(-n2nc(C(=O)NCC(=O)Nc3ccccn3)c3ccccc3c2=O)cc1Cl`, with > 64.6 µM (inactive); and `Cc1ccc2sc(N(CCCN(C)C)C(=O)c3ccc(Br)s3)nc2c1C`, with > 64.6 µM (inactive); and `CC(=O)Nc1cc(-c2ccccc2)cn2c(-c3cccc(C(C)=O)c3)cnc12`, with > 64.6 µM (inactive). `Nc1c(-c2cccs2)cnn1-c1nc(-c2ccc(Cl)cc2Cl)cs1`: the EC50 is > 64.6 µM (inactive). As to `O=C(Nc1cccc(NC(=S)NC(=O)c2cccs2)c1)c1ccccc1`, the EC50 is > 92.5 µM (inactive). Then `CC(C)c1ccc(NS(=O)(=O)c2ccc(-n3cccn3)cc2)cc1`, with > 92.5 µM (inactive); and `COc1cccc(-c2cnc3c(NC=O)cc(-c4cccc(C(=O)N(C)C)c4)cn23)c1`, with > 64.6 µM (inactive). Consider `O=C(COc1ccc2c(c1)OCO2)Nc1ccc2c(c1)oc1ccccc12`, for which the EC50 is > 92.5 µM (inactive).

As to `NC(c1ccccc1)c1csc(NC(=O)Nc2ccccc2Oc2ccccc2)n1` (configuration not stated), the EC50 is > 92.5 µM (inactive).

For `COc1ccc(C(NC(=O)C2CCN(CCOc3ccc(Cl)cc3Cl)CC2)c2ccccc2C)cn1` (configuration not stated), the EC50 is > 64.6 µM (inactive). Take `Cc1ccc(C(=O)Cn2c(C(=O)/C=C/c3ccccc3)nc3ccccc32)cc1`: the EC50 is > 64.6 µM (inactive). Take `CC1CCC(C(C)C)C(OC(=O)C[n+]2cc(-c3ccc(Cl)cc3)n3c2CCCCC3)C1` (configuration not stated): the EC50 is > 92.5 µM (inactive). Then `COc1ccc(-c2sc3ccc(N4CCOCC4)cc3c2C#CC2(O)CCCCC2)cc1`, with > 64.6 µM (inactive); and `COc1cc(-c2cc(NC=O)c3ncc(-c4ccc(C(C)=O)cc4)n3c2)cc(OC)c1OC`, with > 92.5 µM (inactive). Then `CC(/C=C/C=C/c1ccccc1)=N/NC(=O)CNc1ccccc1C`, with > 64.6 µM (inactive). Then `CN(C)CCOc1ccc(-c2c(-c3ccccc3)sc3ccccc23)cc1`, with > 92.5 µM (inactive); and `COc1ccccc1NC(=O)Nc1nc(C(N)Cc2ccc(Cl)cc2)cs1` (configuration not stated), with > 92.5 µM (inactive); and `CCOC(=O)Cc1csc(NC(=O)c2sc3nc4cc(C)ccc4cc3c2N)n1`, with > 92.4 µM (inactive). Take `COc1cccc(CC2(CO)CCCN(Cc3[nH]c4ccc(C)cc4c3C)C2)c1` (configuration not stated): the EC50 was > 92.5 µM (inactive). Then `CCCOc1ccc(C(=O)C(CCC(CNCC)C(=O)c2ccc(OCCC)cc2)CNCC)cc1` (configuration not stated), with > 92.5 µM (inactive); and `CCCCCCCNC(=O)C1(CC2CC(c3ccc(Cl)cc3)=NO2)CCNCC1` (configuration not stated), with > 64.6 µM (inactive).

Consider `OC(CNCCc1ccc(C(F)(F)F)cc1)COC(c1ccccc1)c1ccccc1` (configuration not stated), for which the EC50 was > 64.6 µM (inactive). Then `CC(=O)c1cccc(-c2cnc3c(NC=O)cc(-c4ccc(N(C)C)cc4)cn23)c1`, with > 64.6 µM (inactive). Then `CC(C)CC(N)c1csc(Nc2ccc(C(F)(F)F)cn2)n1` (configuration not stated), with > 92.5 µM (inactive). Then `COc1cccc(-c2sc3ccccc3c2-c2ccc(OCCN(C)C)cc2)c1`, with > 64.6 µM (inactive). As to `CCOC(=O)C(=CNc1ccc2c(c1)nnn2-c1ccc(Cl)cc1)C(=O)OCC`, the EC50 is > 64.6 µM (inactive). In the case of `COc1cccc(-c2cnc3c(NC(C)=O)cc(-c4ccc(C(=O)N5CCOCC5)cc4)cn23)c1`, the EC50 is > 64.6 µM (inactive). Take `CCC(C)c1ccc(NC(=S)NC2CCN(Cc3ccccc3)CC2)cc1` (configuration not stated): the EC50 is > 64.6 µM (inactive). `CCn1c(SCC(=O)Nc2ccc(C(C)=O)cc2)nc2nc3c(cc2c1=O)CCCC3`: the EC50 is > 64.6 µM (inactive). As for `O=C1OC(c2ccccc2)(c2cc(Br)ccc2O)c2ccccc21` (configuration not stated), the EC50 result was “inactive”. Regarding `O=C1OC(c2ccccc2)(c2ccc(O)cc2)c2ccccc21` (configuration not stated), the EC50 is > 92.5 µM (inactive).
